Our source for the TGI and GI50 values is PubChem BioAssay (NCI).

What all share (test): inhibition of tumour cell growth, NCI panel, 48 h
In assay [1] the test system is HCT-15 colon.
Assay [2] concerns OVCAR-3 ovarian.
Assay [3] concerns IGROV1 ovarian.
Assay [4] concerns UACC-257 melanoma.
Assay [5] concerns U251 CNS.
The test system of assay [6] is HCT-116 colon.
The subject of assay [7] is MDA-MB-435.
Assay [8] concerns HL-60(TB) leukemia.
The test system of assay [9] is UACC-62 melanoma.
Assay [10] relates to SK-MEL-2 melanoma.

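Five compound concentrations were applied to cells in 96-well plates for 48 hours; endpoints were derived by simple linear interpolation of the resulting dose-response curve. Abbreviation: GI50, concentration required for 50% inhibition of growth. TGI denotes the concentration required for complete inhibition of growth.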

Take `O=C1c2cccc3cc4ccccc4c(c23)C(=O)N1CCCNCCNCCCN1C(=O)c2cccc3cc4ccccc4c(c23)C1=O`: the TGI in assay [1] is 1.36 µM; in assay [2], 1.86 µM; in assay [3], 1.72 µM; in assay [4], 2.25 µM; in assay [5] it was 1.73 µM; in assay [6], 0.168 µM. For the same molecule, the TGI came out at 1.73 µM in assay [7] and 8.28 µM in [8].

For the molecule `COC(=O)[C@@H](C)C[C@H](Cc1ccccc1)NC(=O)c1cccc([C@@H](C[C@H](C(C)C)N(C)C(=O)[C@@H](NC(=O)[C@H]2CCCCN2C)C(C)C)OC(C)=O)n1`, the GI50 in [1] was 0.00507 µM; in assay [2], less than 0.00167 µM; in assay [3], less than 0.00167 µM; in [4] it was 0.0118 µM; in [5], less than 0.00167 µM; in assay [6] it was less than 0.00167 µM. The GI50 in assay [7], in [8] and in [9] was less than 0.00167 µM throughout. Further, the TGI in assay [1] is greater than 16.7 µM; in [2], 0.00268 µM; in assay [3], greater than 16.7 µM; in [4], greater than 16.7 µM; in [5] it was greater than 16.7 µM; in assay [6], greater than 6.68 µM. The figures for the TGI in [7], in assay [8] and in [9] were 0.0881 µM, 0.00181 µM and greater than 16.7 µM, respectively.

In the case of `Cn1c(N)cc(=O)nc1N`, the TGI in [1], in assay [2], in assay [3], in [10], in assay [5] and in assay [6] was greater than 100 µM throughout. Moreover, the TGI in assay [7], in [8] and in assay [9] was greater than 100 µM each time.

For the molecule `CCCCCCn1c(=N)n(CC(O)COc2cccc(C)c2)c2ccccc21` (stereo unspecified), the GI50 in [1] was 2.12 µM; in assay [2], 2.13 µM; in assay [3], 2.78 µM; in assay [4] it was 2 µM; in [10] it was 1.91 µM; in assay [6], 1.36 µM. Besides, the GI50 in [7] was 1.83 µM; in assay [8], 1.88 µM; in assay [9] it was 1.92 µM. The TGI turned out to be 5.34 µM in assay [1]; 4.98 µM in [2]; 10.2 µM in assay [3]; 4.35 µM in assay [4]; 4.26 µM in [10]; 2.89 µM in [6]. In addition, the TGI in [7] came to 3.56 µM; in assay [8], 3.79 µM; in assay [9] it was 4.97 µM.

For the molecule `Oc1c(Br)cc(Br)c2cccnc12`, the GI50 is 4.84 µM in assay [1]; 3.53 µM in assay [2]; 4.18 µM in [3]; 2.22 µM in assay [4]; 3.34 µM in [5]; 3.22 µM in [6]. Besides, the GI50 is 3.62 µM in [7], 2.28 µM in [8] and 2.16 µM in [9]. For the same molecule, the TGI in assay [1] stood at 31.1 µM; in [2] it was 15.2 µM; in assay [3], 51.4 µM; in [4] it was 6 µM; in [5], 18.8 µM; in assay [6], 10.6 µM. The figures for the TGI in [7], in [8] and in assay [9] were greater than 100 µM, 5.13 µM and 7.37 µM, respectively.

On to `COc1ccc(C2CC(c3ccc(OC)c(OC)c3)=NN2C(=O)c2cc(OC)c(OC)c(OC)c2)cc1` (stereo unspecified), for which the GI50 was 1.76 µM in assay [1]; 3.32 µM in assay [3]; greater than 31.5 µM in assay [4]; 3.87 µM in assay [10]; 2.53 µM in assay [5]; 2.23 µM in assay [6]. The GI50 is 0.409 µM in assay [7], 2.4 µM in assay [8] and 1.39 µM in assay [9]. Also, the TGI in assay [1], in [3], in assay [4], in [10], in assay [5] and in [6] was greater than 100 µM in each case. Moreover, the results for the TGI in [7], in assay [8] and in assay [9] were 2.02 µM, greater than 32 µM and greater than 100 µM, respectively.

Turning to `CN(C)CCCn1c2c(c3ccc([N+](=O)[O-])cc3c1=O)C(=O)c1ccccc1-2`, the GI50 in assay [1] was 10.6 µM; in assay [2], 25.6 µM; in [3], 4.98 µM; in assay [4], 38.1 µM; in [10], greater than 100 µM; in assay [5], 6.36 µM. Further, the values for the GI50 in assay [6], in assay [7] and in assay [9] were 6.48 µM, greater than 100 µM and 7.13 µM, respectively. Moreover, the TGI in assay [1] is 35.8 µM; in assay [2], 70.5 µM; in assay [3], greater than 100 µM; in [4], greater than 100 µM; in assay [10], greater than 100 µM; in [5] it was 27.7 µM. The TGI in assay [6] was 21.8 µM; in [7], greater than 100 µM; in [9] it was 24.6 µM.

As for `CCOC(=O)c1ccccc1NC(c1ccccc1)c1ccc2cccnc2c1O` (stereo unspecified), the GI50 was 2.11 µM in assay [1]; 3.85 µM in assay [2]; 4.01 µM in assay [3]; 2.98 µM in assay [4]; 3.74 µM in assay [10]; 2.75 µM in assay [5]. The figures for the GI50 in assay [6], in assay [7] and in [8] were 3.41 µM, 5.41 µM and 1.97 µM, respectively. Besides, the TGI is 23.5 µM in assay [1]; 23.4 µM in [2]; 24.1 µM in assay [3]; 21.5 µM in assay [4]; 45.1 µM in assay [10]; 16.5 µM in [5]. The results for the TGI in assay [6], in assay [7] and in assay [8] were 80.1 µM, 61.6 µM and 6.63 µM, respectively.

Turning to `CNCc1ccc(C)c(NC(=O)c2ccc(Nc3nc(-c4ccccc4)c4ccccc4n3)cc2)c1`, the GI50 is 1.69 µM in assay [1]; 1.9 µM in assay [2]; 1.92 µM in assay [4]; 1.9 µM in [10]; 1.54 µM in assay [5]; 1.68 µM in assay [6]. Also, the GI50 in assay [7] was 1.6 µM; in assay [8], 1.92 µM. Also, the TGI is 3.35 µM in assay [1]; 3.84 µM in assay [2]; 3.73 µM in [4]; 3.66 µM in assay [10]; 2.96 µM in [5]; 3.1 µM in assay [6]. For the same molecule, the TGI in assay [7] stood at 3.22 µM; in assay [8], 4.33 µM.
